This passage reports inhibition results from ChEMBL document CHEMBL1133971, “EDTA bis-(ethyl phenylalaninate): a novel transition metal-ion chelating hydroxyl radical scavenger with a potential anti-inflammatory role” (Bioorg Med Chem Lett, 2001).

A short description of assay [1]: Antioxidant efficacy as assessed by the deoxyribose assay in presence of EDTA (0.104 mM) and phenylalanine (0.208 mM).
A short description of assay [2]: Antioxidant efficacy as assessed by the deoxyribose assay at a concentration of 1.040 mM.
Assay [3] in a line: Antioxidant efficacy as assessed by the deoxyribose assay at a concentration of 0.104 mM.
The nature of assay [4]: Antioxidant efficacy as assessed by the deoxyribose assay at a concentration of 5.2 mM.

What is called inhibition is the relative decrease from the control value, in per cent.

On to `CCOC(=O)C(Cc1ccccc1)NC(=O)CN(CCN(CC(=O)O)CC(=O)NC(Cc1ccccc1)C(=O)OCC)CC(=O)O` (centres undefined), for which the inhibition in assay [1] was found to be 2%; in assay [2], 42%; in assay [3] it was 20%; in assay [4], 51%.
